From patent US20250312504A1, “VOLATILE COMPOSITION […] FOR COMPOSITIONS COMPRISING A META-(C1-C4 ALKOXY) […]” (The Procter & Gamble Company, priority 2024, published 2025)

Legend:
Format in all cases: physicochemical
[1] = Headspace Method, air/solvent partition out of isopropyl myristate (IPM); details: relative to ethylvanillin
Method: (§1) Perfume headspace data is collected for various materials according to the method provided below.
(§2) The partition coefficients are calculated by determining the amount of PRM in the headspace above a solution with a known concentration using a GC/FID-MS (Agilent 7890 and 5977A MSD) with a thermal desorption unit (Gerstel MPS2) and Dynamic Headspace Sampler (Gerstel DHS). This technique allows for automated headspace collections using the MultiPurposeSampler (MPS). The PRMs of interest are prepared at a known concentration in isopropyl myristate (IPM) or dipropylene glycol methyl ether (DPM), and 1 mL is pipetted in a 20 mL headspace vial. […]
(§3) Analytical standards can be obtained from Sigma Aldrich, St. Louis, MO and BioSynth, UK. A stock solution is prepared at approximately 0.5 g/L. The stock solution is then diluted to 4 to 5 concentrations ranging from approximately 0.05 g/L to 0.00005 g/L. These standard solutions are then analyzed by GC/MS. […]
(§4) Quantification of the headspace is performed by the PRM target m/z area response of the perfume component and the linear equation of the calibration plot.
(§5) Perfume headspace data is collected for various materials according to the Headspace Method provided above in the Test Methods section. The Air/Solvent partition coefficients are determined and indexed accordingly (e.g., where the partition coefficient for ethylvanillin is set at 1.00).

[2] = Headspace Method, air/solvent partition out of dipropylene glycol methyl ether (DPM); details: relative to ethylvanillin
Method: as §1, §2, §3, §4, §5

[3] = Electronic air freshener device test of DPM solutions (crystallization, weight loss); details: for crystal formation in air freshener device over time: 2, 5 and 10 wt. % solutions in DPM, plugged-in device, inspected daily for 4 weeks
Method: Each solution (24 mL) was added to a P&G electronic air freshener device and plugged in to a standard 120v outlet. The devices were inspected and weighed daily for 4 weeks. The mass of each device was no longer recorded after the device stopped losing weight.
FIGS. 3-5 show the % weight loss of each solution in the P&G electronic air freshener device.

| Structure (SMILES) | goes into the headspace more than ethylvanillin out of IPM [1] | goes into the headspace more than ethylvanillin out of DPM [2] | weight loss rate of solution in air freshener device ([3]; 2, 5 and 10 wt. % in DPM, most noticeable in the 5% and 10% solutions) | crystal formation in air freshener device over time [3] |
| --- | --- | --- | --- | --- |
| CCOc1cccc(C=O)c1O [ortho-Ethylvanillin, 2-hydroxy-3-ethoxybenzaldehyde] | about 6.2 × | about 94 × | steeper weight loss rate than the EV and V solutions | no crystals formed |
| CCOc1cc(C=O)ccc1O [Ethylvanillin, reference compound] |  |  |  | crystals were seen to form |
| COc1cc(C=O)ccc1O [Vanillin, reference compound] |  |  |  | crystals were seen to form |
